These results are taken from paper PMC8750527 (Cancers, 2021).

Structures are written as SMILES. Read-outs that look alike come from different tables or passages of the source.

The test system of data set [1] is subcutaneous HD-MB03 tumors. Description: Subcutaneous HD-MB03 xenografts. The class given is in vivo, mouse. As to conditions: oral, thrice a week. As for the experimental part: For subcutaneous xenograft experiments, tumor cells expressing the luciferase (350,000 HDMB-Luc cells and 1.10^6 DAOY-Luc cells) were resuspended in 200 µL of 5 µg/mL Matrigel (Corning Inc., Corning, NY, USA) and injected subcutaneously in the flank of 5-week-old Rj:NMRI-Foxn1 nude (nu/nu) female mice (Janvier Labs, Le Genest-Saint-Isle, France). Saline solution (NaCl 0.9M; 100 µL) containing 30 mg/mL D-Luciferin (Perkin Elmer, Wellesley, MA, USA) was injected intraperitoneally in the animals and the bioluminescence was quantified using an In Vivo Imaging System (Perkin Elmer, Wellesley, MA, USA) according to the manufacturer’s instructions. Tumor volume (V = L × l2 × 0.52) was determined with a caliper and the endpoint was determined as a tumor volume of 1000 mm^3. […] The mice were sacrificed when the tumor reached 1000 mm^3. […] No statistical methods were used to predetermine the sample size of the experiments. Animal facility availability and cost were used to determine sample sizes. Two independent cohorts of five mice per group were used for the tumor growth experiment with HD-MB03 cells and one cohort of five mice per group was used for the experiment with DAOY cells. Animal experiments were carried out in strict accordance with the recommendations in the Guide for the Care and Use of Laboratory Animals. Our experiments were approved by Direction de l’Action Sanitaire et Sociale of the Principality of Monaco and the ethics committee of Centre Scientifique de Monaco.
(§1) The growth rate of the tumors generated with HD-MB03 cells was determined using a linear regression method applied to the growth curves between the sizes of 400 mm^3 up to the endpoint using Prism 5 (Graphpad Software Inc., San Diego, CA, USA).
(§2) Tumor samples were recovered from the animals and embedded in the OCT compound according to the manufacturer’s protocol (Thermo Fisher Scientific Inc., Waltham, MA, USA). After that, 5 µm thin sections were prepared with a cryostat (Leica Microsystems, Wetzlar, Germany). Incubation was carried out with the following antibodies diluted at 1:1000 in TBS supplemented with 1% horse serum and 1% BSA for 20 min at room temperature: anti-Ki67 (cat. number ab16667, Abcam, Cambridge, UK), anti-CD31 (cat. number 550274, BD Biosciences, Frankton Lake, NJ, USA) or anti-αSMA (cat. number A2547, Merck Millipore, Burlington, MA, USA). The preparations were then washed with TBS–0.025% Triton, incubated with anti-rabbit Alexa488 and anti-mouse Alex-555-coupled secondary antibodies (Cell Signaling Technology, Danvers, MA, USA), washed with TBS–0.025% Triton, and the nuclei were counterstained with Hoechst33342 (Thermo Fisher Scientific, Waltham, MA, USA). Fluorescence images of the cells were taken with a DMI400 inverted microscope equipped with a 40× objective (Leica Microsystemes, Nanterre, France) and a Zyla 5.5 camera (Andor Technologies, Belfast, UK) powered by the Micromanager software. At least one cross-section of nonoverlapping images of each tumor was acquired. All the images were then quantified with the CellProfiler 3.0 software.

Data set [2] has as its system C8-D1A. Description: MTT assay, 48 h exposure, murine primary astrocytes. The class given is cell-based. As to conditions: Mus musculus, C8-D1A. As to the method: (§3) HDF (3000 cells), C8-D1A (5000 cells), D458 (5000 cells), DAOY (2000 cells), HD-MB03 (10,000 cells) and CHLA-01-Med (10,000 cells) were seeded at an approximate confluency of 50% in 96-well plates (Corning Inc., Corning, NY, USA) in 100 µL medium per well. A range from 50 nM to 150 µM of every drug was tested. The effects of the antiangiogenic compounds were measured using a 3-[4,5-dimethylthiazol-2yl]-diphenyltetrazolium bromide (MTT) colorimetric assay (Sigma, Lyon, France) according to the manufacturer’s instructions. When applicable, IC50 was calculated using the nonlinear regression method of the Prism 5 software (Graphpad Software Inc., San Diego, CA, USA). […] An MTT assay was conducted as described above to assess the fitness of the cells.
In general terms: Tetrazolium dyes change colour on reduction, which living cells bring about.

For data set [3], the system named is HD-MB03. Description: Cumulative population doubling (CPD), HD-MB03. The class given is cell-based, human. The following applies: continuous treatment; axitinib 5 µM, etoposide 1 µM. As for the experimental part: (§4) Cumulative population doubling (CPD) was assessed as previously described. Briefly, depending on the cell line, a variable number of cells corresponding to about 30% confluency were seeded in triplicate in 60 mm diameter Petri dishes. […] The cells were harvested when the confluency reached about 90%, counted and plated again at a dilution of 1/20. CPD was calculated as previously described.

Data set [4] deals with D458. Description: MTT assay, 48 h exposure, D458 MB cells. In kind it is cell-based, human. The following applies: for IC50: Homo sapiens, MTT, 48 h exposure, mean ± SEM. As to the method: as §3
For data set [5], the system named is DAOY. Description: MTT assay, 48 h exposure, DAOY MB cells. The class given is cell-based, human. The following applies: for IC50: Homo sapiens, Daoy, MTT, 48 h exposure, mean ± SEM. As for the experimental part:
as §3

The test system of data set [6] is HD-MB03. Description: MTT assay, 48 h exposure, HD-MB03 MB cells. In kind it is cell-based, human. The following applies: for IC50: Homo sapiens, HD-MB03, MTT, 48 h exposure, mean ± SEM. As for the experimental part:
as §3

Data set [7] has as its system MB cells. Description: Proliferation index assay, MB cells. As to conditions: after 120 h; axitinib 5 µM, etoposide 1 µM. The class given is cell-based, human. As for the experimental part:
DAOY, D458, D283, C8-D1A and HDF (30,000 cells per well) and HD-MB03 (50,000 cells per well) were seeded in 24-well plates for proliferation assays.

The test system of data set [8] is C8-D1A/HD-MB03 mixed spheroids. Description: 3D mixed spheroids of astrocytes and MB cells. In kind it is cell-based. The following applies: 7 days; axitinib 5 µM or etoposide 1 µM. As for the experimental part:
C8-D1A cells were stained with the green fluorescent probe neuro-DiO (cat. number 60015, Biotium, Fremont, CA, USA) according to the manufacturer’s protocol. C8-D1A-neuroDio cells (150,000) and HD-MB03-mCherry or DAOY-mCherry cells (50,000) were plated in 12-well plates. […] Fluorescence images of the cells were taken with a DMI400 inverted microscope (Leica Microsystemes SAS, Nanterre, France) equipped with a 40× objective and a Zyla 5.5 camera (Andor Technologies, Belfast, UK). The cells were then trypsinized and the number of both cell types was quantified using a Melody FACS (BD Biosciences, Frankton Lake, NJ, USA) with a 488 nm laser beam. Analysis of the FACS data was conducted with the Flowjo software (Tree Star Inc., Ashland, OR, USA).
Two thousand cells were seeded in ultralow-adhesion 96-well plates (Corning Inc., Corning, NY, USA). […] Pictures were taken with an AMG Evos microscope 40× objective (Thermo Fisher Scientific Inc, Waltham, MA, USA) and the spheroid areas were measured using the ImageJ software (NIH, Bethesda, MD, USA).

The subject of data set [9] is HD-MB03 intracranial tumors. As to the method: HD-MB03-Luc spheroids were stereotaxically implanted into the brains of 9-week-old Rj:NMRI-Foxn1 nude (nu/nu) female mice (Janvier Labs, Le Genest-Saint-Isle, France). Briefly, MB spheroids were generated with 2500 cells grown for 48 h in ultralow-adhesion spheroid 96-well plates (Corning, Corning, NY, USA) and three spheroids per mouse were implanted into the left cerebellar hemisphere (2 mm posterior, 1.5 mm left of the lambda point and 2.5 mm deep) using a Hamilton syringe fitted with a needle (Hamilton, Bonaduz, Switzerland) and following the procedure already described. […] Oral gavage with a vehicle solution was used as the control. Mouse survival was based on the presence of neuropathological symptoms including gait defects and a loss of weight over 10% as endpoints. A minimum of five mice per group was chosen to yield sufficient statistical power (p < 0.05, one-way ANOVA). These experiments were carried out in strict accordance with the recommendations in the Guide for the Care and Use of Laboratory Animals. Our experiments were approved by Direction de l’Action Sanitaire et Sociale of the Principality of Monaco and the ethics committee of Centre Scientifique de Monaco.
as §2

Data set [10] concerns subcutaneous DAOY tumors. The following applies: oral, thrice a week; axitinib 50 mg/kg, etoposide 30 mg/kg, combination 25 + 15 mg/kg. As to the method: For subcutaneous xenograft experiments, tumor cells expressing the luciferase (350,000 HDMB-Luc cells and 1.10^6 DAOY-Luc cells) were resuspended in 200 µL of 5 µg/mL Matrigel (Corning Inc., Corning, NY, USA) and injected subcutaneously in the flank of 5-week-old Rj:NMRI-Foxn1 nude (nu/nu) female mice (Janvier Labs, Le Genest-Saint-Isle, France). Saline solution (NaCl 0.9M; 100 µL) containing 30 mg/mL D-Luciferin (Perkin Elmer, Wellesley, MA, USA) was injected intraperitoneally in the animals and the bioluminescence was quantified using an In Vivo Imaging System (Perkin Elmer, Wellesley, MA, USA) according to the manufacturer’s instructions. Tumor volume (V = L × l2 × 0.52) was determined with a caliper and the endpoint was determined as a tumor volume of 1000 mm^3. […] The mice were sacrificed when the tumor reached 1000 mm^3. […]
as §1
Tumor samples were recovered from the animals and embedded in the OCT compound according to the manufacturer’s protocol (Thermo Fisher Scientific Inc., Waltham, MA, USA). […] All the images were then quantified with the CellProfiler 3.0 software.

The test system of data set [11] is DAOY. Description: Cumulative population doubling (CPD), DAOY. In kind it is cell-based, human. As to conditions: continuous treatment; axitinib 5 µM, etoposide 1 µM. As for the experimental part:
as §4

The subject of data set [12] is CHLA-01-Med. Description: MTT assay, 48 h exposure, CHLA-01-Med MB cells. In kind it is cell-based, human. As to the method:
as §3

For data set [13], the system named is MB cells. Description: Cell viability, propidium iodine incorporation, MB cells. In kind it is cell-based, human. The following applies: 48 h, 5 µM. As for the experimental part:
(§5) Cell viability assays were conducted using a propidium iodine incorporation technique with an ADAM-sHIT automated cell counter (NanoEnTek, Gyeonggi-do, Korea) according to the manufacturer’s protocol.

Data set [14] relates to HDF. Description: MTT assay, 48 h exposure, human dermal fibroblasts. The following applies: Homo sapiens, HDF, Table 1, normal cells, mean ± SEM. The class given is cell-based. As for the experimental part: as §3
Data set [15] has as its system C8-D1A astrocytes. Description: Cell viability, propidium iodine incorporation, C8-D1A. The following applies: 48 h; axitinib, cabozantinib, sunitinib 5 µM, etoposide 1 µM. The class given is cell-based, murine. As to the method:
as §5

Where [16] appears, read: axitinib 50 mg/kg, etoposide 30 mg/kg, combination 25 + 15 mg/kg.

For the compound `COc1cc([C@@H]2c3cc4c(cc3[C@@H](O[C@@H]3O[C@@H]5CO[C@@H](C)O[C@H]5[C@H](O)[C@H]3O)[C@H]3COC(=O)[C@H]23)OCO4)cc(OC)c1O` [Etoposide, etoposide], the “number of endothelial cells (CD31-positive) and/or pericytes/cancer-associated fibroblasts (αSMA-positive)” value in data set [1] is reported as “did not impact”. In addition, in [1] (setting [16]), the “median time to reach the endpoint volume (1000 mm^3)” value is 18 days. The “range of time to reach the endpoint volume (1000 mm^3)” value in data set [1] (setting [16]) is 11 to 60 days. In addition, the half-inhibitory concentration (IC50) (usually the concentration needed to halve the response being measured) in [2] (Table 3, mean ± SEM) worked out at 2.2 ± 0.6 µM; in data set [4] (Table 3), 0.52 ± 0.15 µM; in data set [5] (Table 3), 0.2 µM; in data set [6] (Table 3), 0.09 ± 0.006 µM. In addition, the “long-term proliferation (CPD) of HD-MB03 cells” value in data set [3] is “strongly impaired their proliferation”. Further, in [7], the “reduction of proliferation of MB cells” value is “more than 80%”. In addition, in [8], the “size of mixed spheroids” value was “strong decrease in the size of spheroids”. Moreover, the “number of CD31-positive and αSMA-positive double-stained structures (vessels covered with pericytes)” value in [9] (metronomic oral treatment) was “decreased the number”. Moreover, in data set [9] (oral, five times a week, axitinib 50 mg/kg, etoposide 30 mg/kg, combination 25 + 15 mg/kg), the “survival of mice with intracranial tumors” value is on record as “no significant effect on survival”. Moreover, the “tumor growth (lognormal mathematical modelling)” value in [10] is reported as “decreased tumor growth rates”. For the same compound, in data set [11], the “long-term proliferation (CPD) of DAOY cells” value is on record as “strongly impaired their proliferation”.
Take `CCN(CC)CCNC(=O)c1c(C)[nH]c(/C=C2\C(=O)Nc3ccc(F)cc32)c1C` [Sunitinib, sunitinib]: the IC50 worked out at 5.7 ± 2.2 µM in [2] (Table 1, normal cells, mean ± SEM, read-out: IC50 (µM) C8D1A); 7.5 ± 0.8 µM in data set [12] (Homo sapiens, Table 1, MTT, 48 h exposure, mean ± SEM); 4.2 ± 0.3 µM in data set [4] (Table 1); 7.9 ± 5.5 µM in data set [5] (Table 1); 1.8 ± 0.04 µM in [14]; 4.6 ± 0.3 µM in data set [6] (Table 1). The “Specificity Index relative to C8D1A, CHLA-01-Med” value in data set [12] (ratio IC50 C8-D1A / IC50 CHLA-01-Med) was 0.76. For the same compound, the “Specificity Index relative to HDF, CHLA-01-Med” value in [12] (ratio IC50 HDF / IC50 CHLA-01-Med) was 0.24. Further, in data set [13], the “viability of MB cells” value was “decreased the viability of most MB cells”. In addition, in [4] (ratio IC50 C8-D1A / IC50 D458), the “Specificity Index relative to C8D1A, D458” value was 1.36. Moreover, the “Specificity Index relative to HDF, D458” value in data set [4] (ratio IC50 HDF / IC50 D458) worked out at 0.43. In data set [5] (ratio IC50 C8-D1A / IC50 DAOY), the “Specificity Index relative to C8D1A, DAOY” value amounted to 0.72. Moreover, the “Specificity Index relative to HDF, DAOY” value in data set [5] (ratio IC50 HDF / IC50 DAOY) is given as 0.23. For the same compound, in data set [6] (ratio IC50 C8-D1A / IC50 HD-MB03), the “Specificity Index relative to C8D1A, HDMB” value was 1.24. The “Specificity Index relative to HDF, HD-MB03” value in [6] (ratio IC50 HDF / IC50 HD-MB03) turned out to be 0.39. Also, the “viability of C8-D1A normal cells” value in data set [15] was “strongly induced the death”.
